Paper PMC10146491, “Meroterpenoids from Gongolaria abies-marina against Kinetoplastids: In Vitro Activity and Programmed Cell Death Study” (Pharmaceuticals, 2023)

Columns and labels:
[1] = tested on: promastigotes of Leishmania infantum; set-up: method as in PMID 28126391; conditions: read-out: IC50 against promastigotes of Leishmania infantum; cited from earlier work
[2] = tested on: intracellular form of L. infantum; set-up: method as in PMID 28126391; conditions: read-out: IC50 against the intracellular form of L. infantum; cited from earlier work
[3] = tested on: L. donovani promastigotes; assay: Mitochondrial membrane potential (JC-1 assay); type: cell-based, Leishmania donovani; conditions: IC90, 24 h
Experimental: (§1) To study the mechanism of cell death induced in parasites by compounds isolated from Gongolaria abies-marina, a common step was carried out to perform the following five experiments. The promastigotes of Leishmania spp. and epimastigotes of T. cruzi were incubated at the IC90 levels of the compounds (previously calculated) for 24 h at 26 °C. After incubation, the parasites were centrifuged at 3000 rpm for 10 min at 4 °C. The pellets were resuspended following the manufacturer’s instructions for each kit. A JC-1 Mitochondrial Membrane Potential Assay Kit® (Cayman Chemical, Ann Arbor, MI, USA) was used to analyze variations in the mitochondrial membrane potential of the parasites after incubation at the IC90 levels of the compounds. After centrifugation, the parasites were resuspended in the same buffer and transferred to a black 96-well plate. JC-1 was added following the manufacturer’s instructions as also described by López-Arencibia et al. (2020). Green and red fluorescence was measured using an EnSpire® Multimode Plate Reader (PerkinElmer, Madrid, Spain).

[4] = tested on: L. donovani promastigotes; assay: ATP level analysis (Cell Titer-Glo); type: cell-based, Leishmania donovani; conditions: IC90 of compound, 24 h
Experimental: (§2) To study the mechanism of cell death induced in parasites by compounds isolated from Gongolaria abies-marina, a common step was carried out to perform the following five experiments. The promastigotes of Leishmania spp. and epimastigotes of T. cruzi were incubated at the IC90 levels of the compounds (previously calculated) for 24 h at 26 °C. After incubation, the parasites were centrifuged at 3000 rpm for 10 min at 4 °C. The pellets were resuspended following the manufacturer’s instructions for each kit. After the incubation of promastigotes and epimastigotes of the parasites with the IC90 of the compounds, the changes in ATP levels were measured using a Cell Titer-Glo® Luminescent Cell Viability Assay (Promega, WI, USA). The assay was carried out in a white 96-well plate following the manufacturer’s instructions, as previously described by Cartuche et al. (2020). The luminescence was measured using an EnSpire® Multimode Plate Reader (PerkinElmer, Madrid, Spain).

[5] = Cytotoxicity assay (Alamar Blue); type: cell-based; conditions: mouse, J774A.1 murine macrophage cell line, J774A.1, 24 h, read-out: Cytotoxicity CC50, murine macrophages
Experimental: (§3) To carry out the experiments, promastigotes of Leishmania amazonensis (MHOM/BR/77/LTB0016) and L. donovani (MHOM/IN/90/GE1F8R) and epimastigotes of Trypanosoma cruzi (Y strain) were employed. Leishmania species were cultured in Schneider’s medium (Sigma-Aldrich, Madrid, Spain), supplemented with 10% fetal bovine serum (VWR, Biowest, Nuaillé, France) and incubated at 26 °C. RPMI 1640 medium (Gibco, Thermo Fisher, Madrid, Spain) with or without phenol red was also used to culture the parasites at the same temperature. Epimastigotes of T. cruzi were cultured in liver infusion tryptose (LIT) medium supplemented with 10% fetal bovine serum at 26 °C. A cytotoxicity assay was performed using a murine macrophage cell line J774A.1 (ATCC TIB-67), which was maintained in Dulbecco’s modified Eagle’s medium (Gibco, Thermo Fisher, Madrid, Spain) supplemented with 10% of fetal bovine serum at 37 °C in a 5% CO2 atmosphere.
In a sterile 96-well plate, murine macrophages of the cell line J774A.1 were placed to reach an amount of 10^5 cells per well using RPMI 1640 medium without phenol red. After murine macrophage attachment, 50 µL serial dilutions of the isolated compounds were added in each well until reaching a final volume of 100 µL. Next, 10% of Alamar Blue® was placed into each well and the plate was incubated for 24 h at 37 °C with a 5% CO2 atmosphere. Finally, the plates were analyzed using an EnSpire® Multimode Plate Reader (PerkinElmer, Madrid, Spain), as described in the previous section, and the 50% cytotoxic concentration (CC50) values were calculated.
(§4) The 50% inhibitory concentration (IC50) and 50% cytotoxic concentration (CC50) values were obtained using Sigma Plot 12.0 statistical analysis software (Systat Software) and calculated using a non-linear regression analysis with 95% confidence limits. Leishmanicidal and trypanocidal activity assays, as well as cytotoxicity assays, were performed three times on different days, and the results were expressed as means ± standard deviations. The analysis of variance was determined using a one-way ANOVA using the GraphPad.PRISM® 9.0 software program (GraphPad Software, San Diego, CA, USA). Differences at p < 0.05 were considered statistically significant.

[6] = tested on: promastigotes of L. donovani; assay: Leishmanicidal activity assay (Alamar Blue), promastigotes; type: cell-based, Leishmania donovani
Experimental: as §3
(§5) With the objective of determining the antiparasitic activity of the compounds isolated from G. abies-marina, leishmanicidal activity assays were performed against promastigote stages of L. amazonensis and L. donovani, as well as a trypanocidal activity assay performed against epimastigote stages of T. cruzi. In both parasites, a colorimetric assay was used based on the Alamar Blue reagent (Life Technologies, Madrid, Spain) as previously described by Bethencourt-Estrella et al. (2021).
(§6) In a sterile 96 well-plate, serial dilutions of the extracts, fractions or compounds isolated from G. abies-marina were performed in RPMI 1640 medium without phenol red (in the case of Leishmania spp.) or in LIT (in the case of T. cruzi) with a final volume of 100 µL. Parasites were added to wells to reach a concentration of 5 × 10^5 (Leishmania spp.) or 2.5 × 10^5 (T. cruzi) until a final volume of 200 µL/well. Next, 10% of Alamar Blue® was placed into each well and the plate was incubated for 72 h at 26 °C. Finally, the fluorescence of each well was measured using an EnSpire® Multimode Plate Reader (Perkin Elmer, Madrid, Spain) (544 nm excitation, 590 nm emission) and the concentration that inhibits 50% of the parasite population (IC50) was calculated using a non-linear regression analysis with 95% confidence limits. Miltefosine and benznidazol were used as reference drugs. To analyze the data and calculate the IC50, SigmaPlot 12.0 statistical analysis software (Systat Software Inc, Palo Alto, CA, USA) was used.
as §4

[7] = tested on: L. amazonensis promastigotes; assay: Mitochondrial membrane potential (JC-1 assay); type: cell-based, Leishmania amazonensis; conditions: IC90, 24 h
Experimental: as §1

T. cruzi epimastigotes [8] = assay: ATP level analysis (Cell Titer-Glo); type: cell-based, Trypanosoma cruzi; conditions: IC90 of compound, 24 h
Experimental: as §2

[9] = tested on: epimastigotes of Trypanosoma cruzi; assay: Trypanocidal activity assay (Alamar Blue), epimastigotes; type: cell-based
Experimental: as §3, §5, §6, §4

[10] = tested on: L. amazonensis promastigotes; assay: ATP level analysis (Cell Titer-Glo); type: cell-based, Leishmania amazonensis; conditions: IC90 of compound, 24 h
Experimental: as §2

[11] = tested on: promastigotes of L. amazonensis; assay: Leishmanicidal activity assay (Alamar Blue), promastigotes; type: cell-based, Leishmania amazonensis
Experimental: as §3, §5, §6, §4

[12] = tested on: intracellular amastigotes of L. amazonensis; assay: In vitro effect against amastigote stage in infected macrophages; type: cell-based, Leishmania amazonensis
Experimental: To determine the in vitro effect against the amastigote stage of L. amazonensis, murine macrophages were infected. In a sterile 96 well-plate, macrophages of the J774A.1 cell line were placed in RPMI 1640 to reach 10^5 macrophages per well. This plate was incubated at 37 °C in a 5% CO2 atmosphere. After one hour of incubation, 100 µL of stationary-phase promastigotes of 7-day-old culture was added in a 10:1 ratio (10^6 parasites per well) and the plates were re-incubated at 37 °C for 24 h to achieve maximum infection. Then, the wells were washed with fresh medium to remove non-phagocytosed promastigotes. The infected macrophages were treated with the compounds isolated for 24 h. Then, the medium was removed carefully to be replaced by 30 μL of 0.05% SDS and the plate was shaken for 30 s. After broke macrophages, 170 μL of Schneider’s medium was added to each well to give a final volume of 200 μL and 20 μL of Alamar Blue® was added to the plate being incubated at 26 °C for 72 h, as described by López-Arencibia et al. (2017). After 72 h of incubation, the plates were analyzed using the same protocol for the promastigote test.

T. cruzi epimastigotes [13] = assay: Mitochondrial membrane potential (JC-1 assay); type: cell-based, Trypanosoma cruzi; conditions: IC90, 24 h
Experimental: as §1

Compound | IC50 [1] [µM] | IC50 [2] [µM] | Mitochondrial membrane potential changes (JC-1) [3] | ATP levels relative to negative control [4] | CC50 at 24 h [5] [µM] | Selectivity index (CC50/IC50), L. donovani ([6]; CC50 in murine macrophages) | IC50 ([6]; Leishmania donovani, 72 h, Alamar Blue, read-out: Antikinetoplastid activity IC50, L. donovani) [µM] | Mitochondrial membrane potential changes (JC-1) [7] | ATP levels relative to negative control (T. cruzi epimastigotes [8]) | ATP levels relative to negative control (T. cruzi epimastigotes [8]; listed as cystomexicone B (1)) | Selectivity index (CC50/IC50), T. cruzi ([9]; CC50 in murine macrophages) | IC50 ([9]; Trypanosoma cruzi, 72 h, Alamar Blue, read-out: Antikinetoplastid activity IC50, T. cruzi) [µM] | ATP levels relative to negative control [10] | Selectivity index (CC50/IC50), L. amazonensis ([11]; CC50 in murine macrophages) | IC50 ([11]; Leishmania amazonensis, 72 h, Alamar Blue, read-out: Antikinetoplastid activity IC50, L. amazonensis) [µM] | Selectivity index (CC50/IC50), amastigotes of L. amazonensis ([12]; CC50 in murine macrophages) | IC50 ([12]; Leishmania amazonensis, J774.A1, intracellular amastigotes in J774A.1 macrophages, 24 h treatment) [µM] | Mitochondrial membrane potential changes (JC-1) (T. cruzi epimastigotes [13])
3R-tetraprenyltoluquinone | 44.9 | 25 |  |  |  |  |  |  |  |  |  |  |  |  |  |  |  | 
3S-tetraprenyltoluquinone | 94.4 | 88 |  |  |  |  |  |  |  |  |  |  |  |  |  |  |  | 
COc1c(C)cc(O)cc1C/C=C(\C)CC(=O)/C=C(\C)CCCC(C)=O [Cystomexicone B (1), cystomexicone B] |  |  | does not produce significant changes | significantly decreased | > 279 | > 1.12 | 248.3 ± 0.94 | does not produce significant changes | significantly decreased | most affected | > 14.53 | 19.2 ± 2.62 | significantly decreased | > 7.61 | 36.6 ± 4.24 | >11.36 | 24.6 ± 0.83 | does not produce significant changes
